Source: patent US20200031811A1, “SUBSTITUTED MONO- AND POLYAZANAPHTHALENE DERIVATIVES AND THEIR USE” (Basilea Pharmaceutica International AG, priority 2015, published 2020)

What was measured:
MNK1 = target: T1, MNK1 (Homo sapiens, UniProt Q9BUB5); experiment: MNK inhibition assay (Z-Lyte kinase assay, Ser/Thr 7 peptide); type: biochemical; conditions: for IC50: recombinant GST-MNK1, 3 hours at 31° C.
T1 construct: purchased Life Technologies or Carna Biosciences PV6023 or 02-145; host or cells: baculovirus infected insect cells
Summary of the method: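 Recombinant GST-MNK1 from baculovirus-infected insect cells, Z-Lyte Ser/Thr 7 peptide, enzyme set for ~30% phosphorylation in buffer-only wells; 3 hours at 31° C. Compounds at 50–10000 nM (potent ones down to 0.5 nM), at least duplicate. IC50 from % substrate phosphorylation versus buffer-only wells, fluorescence read-out.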

[1] = tested on: human pancreatic cancer cell line MiaPaCa2 (ATCC CRL-1420); experiment: Cell growth assay (CellTiterGlo, 72 hours); type: cell-based; conditions: for IC50: MIA PaCa-2, MiaPaCa2 cells, 72 hours, read-out: IC50 MiaPaCa; for inhibition at 50 µM: MIA PaCa-2, at 50 μM, read-out: Inhibition of MiaPaCa growth at indicated concentration
Summary of the method: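 MiaPaCa2 cells (10^3/well) seeded in supplemented DMEM overnight, then exposed in quadruplicate to compound at 100 down to 0.1 μM for 72 h at 37° C. Growth read by CellTiterGlo luminescence, medium-only background subtracted, normalised to untreated cells; IC50 = concentration reducing growth to 50%.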

T1 sequence (Q9BUB5 whole entry): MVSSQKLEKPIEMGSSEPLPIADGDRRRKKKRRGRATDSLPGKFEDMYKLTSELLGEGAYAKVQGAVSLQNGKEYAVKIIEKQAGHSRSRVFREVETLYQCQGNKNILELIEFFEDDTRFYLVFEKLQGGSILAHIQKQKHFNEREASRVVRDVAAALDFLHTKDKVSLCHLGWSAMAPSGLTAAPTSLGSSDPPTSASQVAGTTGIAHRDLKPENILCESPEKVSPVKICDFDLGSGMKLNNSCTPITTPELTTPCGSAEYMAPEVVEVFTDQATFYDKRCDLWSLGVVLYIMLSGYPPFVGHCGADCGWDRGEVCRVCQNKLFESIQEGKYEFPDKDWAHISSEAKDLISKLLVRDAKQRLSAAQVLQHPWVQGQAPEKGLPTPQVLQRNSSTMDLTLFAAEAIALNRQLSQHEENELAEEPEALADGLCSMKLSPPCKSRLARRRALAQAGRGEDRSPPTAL

CC(=O)c1cccc(-c2cncc3ccc(CN4CCC(N)CC4)cc23)c1 [Example 186]
IC50 (MNK1): 1.24 µM | IC50 [1]: 24 µM

NC1CCN(Cc2ccc3cncc(-c4cccc(O)c4)c3c2)CC1 [Example 187]
IC50 (MNK1): 0.266 µM | IC50 [1]: 13 µM

NC1CCN(Cc2ccc3cncc(-c4cc5cc(Cl)ccc5o4)c3c2)CC1 [Example 188]
IC50 (MNK1): 0.34 µM | IC50 [1]: 5.63 µM

c1ccc2oc(-c3cncc4ccc(Cn5ccc6cnccc65)cc34)cc2c1 [Example 189, 4-(Benzofuran-2-yl)-6-(pyrrolo[3,2-c]pyridin-1-ylmethyl)isoquinoline]
IC50 (MNK1): 0.011 µM | IC50 [1]: 8.39 µM

Nc1cc(CNc2ccc3cncc(-c4cc5ccccc5o4)c3c2)ccn1 [Example 190, N-[(2-Amino-4-pyridyl)methyl]-4-(benzofuran-2-yl)isoquinolin-6-amine]
IC50 (MNK1): 0.087 µM | IC50 [1]: 7.44 µM

c1ccc2oc(-c3cncc4ccc(Cn5ccc6ccncc65)cc34)cc2c1 [Example 191, 4-(Benzofuran-2-yl)-6-(pryrrolo[2,3-c]pyridin-1-ylmethyl)isoquinoline]
IC50 (MNK1): 0.437 µM | IC50 [1]: 19 µM

Nc1ccc2c(ccn2Cc2ccc3cncc(-c4cc5ccccc5o4)c3c2)c1 [Example 192, 1-[[4-(Benzofuran-2-yl)-6-isoquinolyl]methyl]indol-5-amine]
IC50 (MNK1): 1.55 µM | IC50 [1]: 26 µM

NC1CCN(Cc2ccc3cncc(-c4ccc5cnccc5c4)c3c2)CC1 [Example 193]
IC50 (MNK1): 1.05 µM | IC50 [1]: 11.5 µM

NC1CCN(Cc2ccc3cncc(-c4ccc5ccncc5c4)c3c2)CC1 [Example 194]
IC50 (MNK1): 0.797 µM | IC50 [1]: 16.3 µM

NC1CCN(Cc2ccc3cncc(-c4ccc5ncccc5c4)c3c2)CC1 [Example 195]
IC50 (MNK1): 0.797 µM | IC50 [1]: 16.2 µM

NC1CCN(Cc2ccc3cncc(-c4ccc5cccnc5c4)c3c2)CC1 [Example 196]
IC50 (MNK1): 0.331 µM | IC50 [1]: 20.4 µM

NC1CCN(Cc2ccc3cncc(-c4ccc(Cl)cc4Cl)c3c2)CC1 [Example 197]
IC50 (MNK1): 1.39 µM | IC50 [1]: 9.86 µM

COc1cccc(-c2cncc3ccc(CN4CCC(N)CC4)cc23)c1 [Example 198]
IC50 (MNK1): 0.882 µM | IC50 [1]: 11.1 µM

NC1CCN(Cc2ccc3cncc(-c4ccc5c(c4)OCO5)c3c2)CC1 [Example 199]
IC50 (MNK1): 0.212 µM | IC50 [1]: 8.67 µM

NC1CCN(Cc2ccc3cncc(-c4ccc(Cl)c(Cl)c4)c3c2)CC1 [Example 200]
IC50 (MNK1): 0.245 µM | IC50 [1]: 16.4 µM

COc1ccc(-c2cncc3ccc(CN4CCC(N)CC4)cc23)cn1 [Example 201]
IC50 (MNK1): 0.803 µM | IC50 [1]: 25.2 µM

COc1ccc(-c2cncc3ccc(CN4CCC(N)CC4)cc23)cc1OC [Example 202]
IC50 (MNK1): 1.27 µM | IC50 [1]: 19.4 µM

Cn1cc(-c2cncc3ccc(CN4CCC(N)CC4)cc23)cn1 [Example 203]
IC50 (MNK1): 0.624 µM | inhibition at 50 µM [1]: 48%

NC1CCN(Cc2ccc3cncc(-c4cn[nH]c4)c3c2)CC1 [Example 204]
IC50 (MNK1): 4.7 µM | inhibition at 50 µM [1]: 55%

N[C@@H]1CCN(Cc2ccc3cncc(-c4cc5ccccc5o4)c3c2)C[C@H]1F [Example 205]
IC50 (MNK1): 2.15 µM | IC50 [1]: 4.52 µM

N[C@@H]1CCN(Cc2ccc3cncc(-c4cc5ccccc5o4)c3c2)C[C@@H]1F [Example 206]
IC50 (MNK1): 0.017 µM | IC50 [1]: 8.06 µM

NC1CCN(Cc2ccc3cncc(-c4cc5ccccc5o4)c3c2)c2ccccc21 (stereo not drawn) [Example 207]
IC50 (MNK1): 0.606 µM | IC50 [1]: 8.04 µM

c1coc(-c2cncc3ccc(CNc4ccnc5ccccc45)cc23)c1 [Example 208]
IC50 (MNK1): 0.056 µM | IC50 [1]: 8.17 µM

Cc1ccc(-c2cncc3ccc(CNc4ccnc5ccccc45)cc23)o1 [Example 209]
IC50 (MNK1): 0.056 µM | IC50 [1]: 7.5 µM

CN(c1ccc2cncc(-c3cc4ccccc4o3)c2c1)C1CCC(N)CC1 (stereo not drawn) [Example 210]
IC50 (MNK1): 0.022 µM | IC50 [1]: 1.76 µM

CN(c1ccc2cncc(-c3cc4ccccc4o3)c2c1)C1CCNCC1 [Example 211]
IC50 (MNK1): 0.425 µM | IC50 [1]: 5.57 µM

c1ccc2oc(-c3cncc4ccc(NC5CCCNC5)cc34)cc2c1 (stereo not drawn) [Example 212]
IC50 (MNK1): 0.418 µM | IC50 [1]: 1.7 µM

c1ccc2oc(-c3cncc4ccc(NCC5CCNCC5)cc34)cc2c1 [Example 213]
IC50 (MNK1): 0.113 µM | IC50 [1]: 3.48 µM

c1ccc2oc(-c3cncc4ccc(NCC5CCCNC5)cc34)cc2c1 (stereo not drawn) [Example 214]
IC50 (MNK1): 0.534 µM | IC50 [1]: 1.42 µM

Nc1ncc(-c2ccc(Cl)cc2)c2cc(CN3CCC(N)CC3)ccc12 [Example 215]
IC50 (MNK1): 0.473 µM | IC50 [1]: 3.3 µM

Nc1ncc(-c2cccc(Cl)c2)c2cc(CN3CCC(N)CC3)ccc12 [Example 216]
IC50 (MNK1): 1.11 µM | IC50 [1]: 2.52 µM

Nc1ncc(-c2ccc(Cl)c(Cl)c2)c2cc(CN3CCC(N)CC3)ccc12 [Example 217]
IC50 (MNK1): 3.01 µM | IC50 [1]: 3.06 µM

Nc1ncc(-c2cc(Cl)cc(Cl)c2)c2cc(CN3CCC(N)CC3)ccc12 [Example 218]
IC50 (MNK1): 5.72 µM | IC50 [1]: 2.47 µM

Nc1ncc(-c2ccc(F)cc2)c2cc(CN3CCC(N)CC3)ccc12 [Example 219]
IC50 (MNK1): 1.02 µM | IC50 [1]: 5.31 µM

Nc1ncc(-c2cccc(F)c2)c2cc(CN3CCC(N)CC3)ccc12 [Example 220]
IC50 (MNK1): 1.47 µM | IC50 [1]: 4.28 µM

Nc1ncc(-c2ccc(F)c(F)c2)c2cc(CN3CCC(N)CC3)ccc12 [Example 221]
IC50 (MNK1): 0.351 µM | IC50 [1]: 5.03 µM

Nc1ncc(-c2cc(F)cc(F)c2)c2cc(CN3CCC(N)CC3)ccc12 [Example 222]
IC50 (MNK1): 1.91 µM | IC50 [1]: 3.5 µM

Nc1ncc(-c2cc3ccccc3o2)c2cc(CN3CCNCC3)ccc12 [Example 223]
IC50 (MNK1): 1.14 µM | IC50 [1]: 3.94 µM

c1ccc2oc(-c3cncc4ccc(CN5CCNCC5)cc34)cc2c1 [Example 224, 4-(Benzofuran-2-yl)-6-(piperazin-1-ylmethyl)isoquinoline]
IC50 (MNK1): 0.222 µM | IC50 [1]: 11.6 µM

c1coc(-c2cncc3ccc(CN4CCNCC4)cc23)c1 [Example 225]
IC50 (MNK1): 0.096 µM | inhibition at 50 µM [1]: 65%

Cc1ccc(-c2cncc3ccc(CN4CCNCC4)cc23)o1 [Example 226]
IC50 (MNK1): 0.229 µM | IC50 [1]: 20.4 µM

NC1CCN(Cc2ccc3cncc(-c4nc5ccccc5s4)c3c2)CC1 [Example 227, 1-[[4-(1,3-Benzothiazol-2-yl)-6-isoquinolyl]methyl]piperidin-4-amine]
IC50 (MNK1): 1.02 µM | IC50 [1]: 4.43 µM

NC1CCN(Cc2ccc3cncc(-c4nc5ccccc5o4)c3c2)CC1 [Example 228]
IC50 (MNK1): 0.483 µM | IC50 [1]: 4.98 µM

N[C@H]1CC[C@H](Nc2ccc3cncc(-c4ccccc4)c3c2)CC1 [Example 229, trans-N4-(4-phenyl-6-isoquinolyl)cyclohexane-1,4-diamine]
IC50 (MNK1): 0.225 µM | IC50 [1]: 4.5 µM

N[C@H]1CC[C@H](CNc2ccc3cncc(-c4cc5ccccc5o4)c3c2)CC1 [Example 230, trans-N-[(4-Aminocyclohexyl)methyl]-4-(benzofuran-2-yl) isoquinolin-6-amine]
IC50 (MNK1): 2.19 µM | IC50 [1]: 6.02 µM

N[C@H]1CC[C@@H](CNc2ccc3cncc(-c4cc5ccccc5o4)c3c2)CC1 [Example 231]
inhibition at 10 µM (MNK1; at 10 μM, read-out: Inhibition of MNK1 activity at indicated concentration): 54% | IC50 [1]: 3.24 µM

Nc1ncc(-c2cc3ccccc3o2)c2cc(NCc3ccncc3)ccc12 [Example 233, 4-(Benzofuran-2-yl)-N6-(4-pyridylmethyl)isoquinoline-1,6-diamine]
IC50 (MNK1): 4.3 µM | IC50 [1]: 6.8 µM

NC1CCN(Cc2cc(Cl)c3cncc(-c4cc5ccccc5o4)c3c2)CC1 [Example 236, 1-[[4-(Benzofuran-2-yl)-8-chloro-6-isoquinolyl]methyl]piperidin-4-amine]
IC50 (MNK1): 0.579 µM | IC50 [1]: 4.4 µM

NC1CCN(Cc2cc(Cl)c3cncc(-c4ccc(Cl)cc4)c3c2)CC1 [Example 237]
IC50 (MNK1): 0.426 µM | IC50 [1]: 7.8 µM

NC1CCN(Cc2cc(Cl)c3cncc(-c4ccc(F)c(F)c4)c3c2)CC1 [Example 238]
IC50 (MNK1): 0.234 µM | IC50 [1]: 9.08 µM

NC1CCN(Cc2cc(Cl)c3cncc(-c4ccco4)c3c2)CC1 [Example 239]
IC50 (MNK1): 0.1 µM | IC50 [1]: 3.2 µM

NC1CCN(Cc2cc(Cl)c3cncc(-c4cccs4)c3c2)CC1 [Example 240]
IC50 (MNK1): 0.145 µM | IC50 [1]: 5.76 µM

NC1CCN(Cc2cc(Cl)c3cncc(-c4ccccc4)c3c2)CC1 [Example 241]
IC50 (MNK1): 0.213 µM | IC50 [1]: 10.4 µM

COc1cc(CN2CCC(N)CC2)cc2c(-c3cc4ccccc4o3)cncc12 [Example 242, 1-[[4-(Benzofuran-2-yl)-8-methoxy-6-isoquinolyl]methyl]piperidin-4-amine]
IC50 (MNK1): 0.164 µM | IC50 [1]: 2.74 µM

COc1cc(CN2CCC(N)CC2)cc2c(-c3ccc(F)c(F)c3)cncc12 [Example 243]
IC50 (MNK1): 0.347 µM | IC50 [1]: 5.73 µM

COc1cc(CN2CCC(N)CC2)cc2c(-c3ccco3)cncc12 [Example 244]
IC50 (MNK1): 0.116 µM | IC50 [1]: 14.2 µM

COc1cc(CN2CCC(N)CC2)cc2c(-c3cccs3)cncc12 [Example 245]
IC50 (MNK1): 0.024 µM | IC50 [1]: 3.33 µM

COc1cc(CN2CCC(N)CC2)cc2c(-c3ccccc3)cncc12 [Example 246]
IC50 (MNK1): 0.432 µM | IC50 [1]: 5.73 µM

NC1CCN(Cc2cc(F)c3cncc(-c4cc5ccccc5o4)c3c2)CC1 [Example 247]
IC50 (MNK1): 0.228 µM | IC50 [1]: 8.4 µM

NC1CCN(Cc2cc3c(-c4cc5ccccc5o4)cncc3c(F)c2F)CC1 [Example 248]
IC50 (MNK1): 0.147 µM | IC50 [1]: 10 µM
